Data: US12479847B2 (DANA-FARBER CANCER INSTITUTE, INC., priority 2019, dated 2025)
Read-outs that look alike come from different tables or passages of the source.

Key:
Experiment in all cases: KINOMEscan (ScanMAX) kinase profiling
Format in all cases: binding
panel of 468 kinases [1] = target: T1, panel of 468 kinases (Homo sapiens, UniProt P25098); details: GRK2; 1 μM; read-out: % control
T1 construct: purchased KINOMEscan (ScanMAX) service
T1 sequence (P25098 1-689): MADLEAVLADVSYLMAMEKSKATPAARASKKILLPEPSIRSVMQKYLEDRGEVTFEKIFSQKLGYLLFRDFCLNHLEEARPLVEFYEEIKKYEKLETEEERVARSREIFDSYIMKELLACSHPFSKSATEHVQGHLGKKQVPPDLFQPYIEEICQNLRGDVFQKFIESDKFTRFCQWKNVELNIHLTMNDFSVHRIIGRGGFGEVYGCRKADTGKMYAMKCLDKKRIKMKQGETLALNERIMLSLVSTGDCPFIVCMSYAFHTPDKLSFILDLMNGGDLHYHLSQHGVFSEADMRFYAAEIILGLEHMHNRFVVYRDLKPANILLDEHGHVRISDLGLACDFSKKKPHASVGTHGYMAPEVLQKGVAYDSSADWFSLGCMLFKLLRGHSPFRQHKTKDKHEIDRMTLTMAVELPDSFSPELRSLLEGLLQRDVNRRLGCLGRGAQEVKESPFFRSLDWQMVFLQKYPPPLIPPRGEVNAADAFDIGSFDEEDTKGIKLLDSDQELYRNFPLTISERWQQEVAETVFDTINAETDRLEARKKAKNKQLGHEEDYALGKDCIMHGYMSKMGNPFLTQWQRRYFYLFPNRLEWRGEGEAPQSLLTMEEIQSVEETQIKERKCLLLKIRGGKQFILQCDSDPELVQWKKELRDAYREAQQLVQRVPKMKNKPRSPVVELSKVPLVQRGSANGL

panel of 468 kinases [2] = target: T2, panel of 468 kinases (Homo sapiens, UniProt P00519, T315I); details: 1 μM, read-out: % control
T2 construct: purchased KINOMEscan (ScanMAX) service

panel of 468 kinases [3] = target: T3, panel of 468 kinases (Homo sapiens, UniProt P49137); details: MAPKAPK2; 1 μM; read-out: % control
T3 construct: purchased KINOMEscan (ScanMAX) service

panel of 468 kinases [4] = target: T4, panel of 468 kinases (Homo sapiens, UniProt O94804); details: LOK; 1 μM; read-out: % control
T4 construct: purchased KINOMEscan (ScanMAX) service

panel of 468 kinases [5] = target: T5, panel of 468 kinases (Homo sapiens, UniProt P17948); details: FLT1; 1 μM; read-out: % control
T5 construct: purchased KINOMEscan (ScanMAX) service

panel of 468 kinases [6] = target: T6, panel of 468 kinases (Homo sapiens, UniProt P27448); details: MARK3; 1 μM; read-out: % control
T6 construct: purchased KINOMEscan (ScanMAX) service

panel of 468 kinases [7] = target: T7, panel of 468 kinases (Homo sapiens, UniProt Q9H3Y6); details: SRMS; 1 μM; read-out: % control
T7 construct: purchased KINOMEscan (ScanMAX) service

panel of 468 kinases [8] = target: T8, panel of 468 kinases (Homo sapiens, UniProt P07949, V804L); details: RET(V804L); 1 μM; read-out: % control
T8 construct: purchased KINOMEscan (ScanMAX) service

panel of 468 kinases [9] = target: T9, panel of 468 kinases (Homo sapiens, UniProt P00533, G719S); details: EGFR(G719S); 1 μM; read-out: % control
T9 construct: purchased KINOMEscan (ScanMAX) service

panel of 468 kinases [10] = target: T10, panel of 468 kinases (Homo sapiens, UniProt Q8TD19); details: NEK9; 1 μM; read-out: % control
T10 construct: purchased KINOMEscan (ScanMAX) service
T10 sequence (Q8TD19 1-979): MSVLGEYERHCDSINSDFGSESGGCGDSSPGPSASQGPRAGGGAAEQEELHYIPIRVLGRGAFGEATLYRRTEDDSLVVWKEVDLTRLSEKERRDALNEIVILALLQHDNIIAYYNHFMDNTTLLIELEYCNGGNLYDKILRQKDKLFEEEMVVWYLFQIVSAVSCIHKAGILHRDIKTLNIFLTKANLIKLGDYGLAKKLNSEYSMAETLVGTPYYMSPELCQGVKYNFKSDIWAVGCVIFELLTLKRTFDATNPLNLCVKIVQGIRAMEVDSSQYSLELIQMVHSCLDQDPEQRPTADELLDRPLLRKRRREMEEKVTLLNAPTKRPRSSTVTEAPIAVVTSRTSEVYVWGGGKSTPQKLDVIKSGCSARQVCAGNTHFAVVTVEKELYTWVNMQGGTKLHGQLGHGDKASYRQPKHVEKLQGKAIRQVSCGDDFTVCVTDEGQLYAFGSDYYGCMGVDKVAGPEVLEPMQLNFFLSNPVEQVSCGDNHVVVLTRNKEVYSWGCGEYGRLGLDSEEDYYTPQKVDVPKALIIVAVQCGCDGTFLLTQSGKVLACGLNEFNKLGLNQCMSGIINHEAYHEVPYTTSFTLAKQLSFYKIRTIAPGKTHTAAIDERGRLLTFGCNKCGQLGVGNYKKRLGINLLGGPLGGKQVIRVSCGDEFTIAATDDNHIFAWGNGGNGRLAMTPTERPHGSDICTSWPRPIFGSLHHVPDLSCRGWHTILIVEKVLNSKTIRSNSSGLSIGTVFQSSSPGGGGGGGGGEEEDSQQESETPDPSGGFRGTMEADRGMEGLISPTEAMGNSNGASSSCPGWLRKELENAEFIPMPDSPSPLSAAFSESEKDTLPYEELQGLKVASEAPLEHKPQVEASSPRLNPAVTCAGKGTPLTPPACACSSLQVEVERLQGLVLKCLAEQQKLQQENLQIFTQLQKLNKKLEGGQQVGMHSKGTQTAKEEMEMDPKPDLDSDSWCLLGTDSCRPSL

panel of 468 kinases [11] = target: T11, panel of 468 kinases (Homo sapiens, UniProt Q8IVW4); details: CDKL3; 1 μM; read-out: % control
T11 construct: purchased KINOMEscan (ScanMAX) service
T11 sequence (Q8IVW4 whole entry): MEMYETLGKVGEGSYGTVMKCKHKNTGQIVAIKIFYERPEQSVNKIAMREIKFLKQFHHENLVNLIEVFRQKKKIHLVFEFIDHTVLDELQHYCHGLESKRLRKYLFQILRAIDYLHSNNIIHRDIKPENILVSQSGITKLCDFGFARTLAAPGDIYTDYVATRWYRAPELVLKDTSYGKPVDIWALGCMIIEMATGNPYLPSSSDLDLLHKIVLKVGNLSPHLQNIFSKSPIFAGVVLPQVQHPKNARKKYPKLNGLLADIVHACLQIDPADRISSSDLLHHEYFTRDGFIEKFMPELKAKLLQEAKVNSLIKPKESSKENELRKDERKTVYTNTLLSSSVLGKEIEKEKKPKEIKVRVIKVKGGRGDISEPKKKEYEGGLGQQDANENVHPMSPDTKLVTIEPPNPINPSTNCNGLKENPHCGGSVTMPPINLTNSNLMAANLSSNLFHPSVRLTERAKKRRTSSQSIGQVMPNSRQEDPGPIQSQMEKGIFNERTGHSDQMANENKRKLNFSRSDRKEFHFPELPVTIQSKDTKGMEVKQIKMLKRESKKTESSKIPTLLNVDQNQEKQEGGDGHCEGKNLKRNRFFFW

T3 sequence (P49137 whole entry): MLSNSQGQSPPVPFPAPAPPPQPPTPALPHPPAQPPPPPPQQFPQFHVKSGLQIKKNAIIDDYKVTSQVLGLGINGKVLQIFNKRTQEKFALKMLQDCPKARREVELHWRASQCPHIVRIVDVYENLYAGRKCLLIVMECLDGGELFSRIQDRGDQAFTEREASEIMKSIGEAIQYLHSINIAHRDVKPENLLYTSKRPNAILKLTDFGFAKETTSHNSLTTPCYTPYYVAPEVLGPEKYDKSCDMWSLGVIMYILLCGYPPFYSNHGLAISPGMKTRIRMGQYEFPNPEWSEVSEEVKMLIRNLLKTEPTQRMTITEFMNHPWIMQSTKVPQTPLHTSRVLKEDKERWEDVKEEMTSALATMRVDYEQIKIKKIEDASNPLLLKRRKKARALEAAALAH
T5 sequence (P17948 27-1338): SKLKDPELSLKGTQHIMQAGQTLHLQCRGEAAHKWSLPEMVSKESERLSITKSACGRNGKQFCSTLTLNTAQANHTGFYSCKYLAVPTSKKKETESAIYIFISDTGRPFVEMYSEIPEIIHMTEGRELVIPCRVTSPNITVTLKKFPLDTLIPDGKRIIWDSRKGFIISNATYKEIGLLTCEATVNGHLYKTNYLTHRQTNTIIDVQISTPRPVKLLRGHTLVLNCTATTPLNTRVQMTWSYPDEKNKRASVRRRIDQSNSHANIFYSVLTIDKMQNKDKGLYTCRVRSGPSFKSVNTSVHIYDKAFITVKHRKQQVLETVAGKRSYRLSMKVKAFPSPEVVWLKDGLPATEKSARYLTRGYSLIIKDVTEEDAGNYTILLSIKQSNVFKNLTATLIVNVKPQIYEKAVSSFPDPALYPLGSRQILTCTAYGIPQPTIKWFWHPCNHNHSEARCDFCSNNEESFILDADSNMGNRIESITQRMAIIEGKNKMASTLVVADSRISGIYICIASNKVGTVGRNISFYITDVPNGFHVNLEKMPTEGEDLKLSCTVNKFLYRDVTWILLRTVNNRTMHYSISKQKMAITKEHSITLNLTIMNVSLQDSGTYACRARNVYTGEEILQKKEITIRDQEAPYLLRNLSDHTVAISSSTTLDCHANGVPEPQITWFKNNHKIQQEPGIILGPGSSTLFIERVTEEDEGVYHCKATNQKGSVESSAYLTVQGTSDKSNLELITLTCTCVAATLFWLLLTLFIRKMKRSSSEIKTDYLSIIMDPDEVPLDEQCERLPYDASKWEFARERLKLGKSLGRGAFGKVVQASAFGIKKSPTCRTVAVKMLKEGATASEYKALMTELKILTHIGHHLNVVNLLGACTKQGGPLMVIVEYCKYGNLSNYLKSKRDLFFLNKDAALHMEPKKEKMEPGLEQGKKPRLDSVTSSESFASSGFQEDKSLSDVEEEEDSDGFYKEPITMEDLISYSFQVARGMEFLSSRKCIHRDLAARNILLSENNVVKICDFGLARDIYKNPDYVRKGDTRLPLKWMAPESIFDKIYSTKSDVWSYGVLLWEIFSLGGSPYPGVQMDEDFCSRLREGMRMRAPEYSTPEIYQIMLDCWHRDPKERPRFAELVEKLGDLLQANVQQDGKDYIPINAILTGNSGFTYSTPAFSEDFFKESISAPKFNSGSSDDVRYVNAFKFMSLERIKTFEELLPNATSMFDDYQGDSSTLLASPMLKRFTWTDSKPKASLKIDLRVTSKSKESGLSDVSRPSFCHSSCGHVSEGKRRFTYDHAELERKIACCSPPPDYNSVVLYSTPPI
T8 sequence (P07949 29-1114 V804L): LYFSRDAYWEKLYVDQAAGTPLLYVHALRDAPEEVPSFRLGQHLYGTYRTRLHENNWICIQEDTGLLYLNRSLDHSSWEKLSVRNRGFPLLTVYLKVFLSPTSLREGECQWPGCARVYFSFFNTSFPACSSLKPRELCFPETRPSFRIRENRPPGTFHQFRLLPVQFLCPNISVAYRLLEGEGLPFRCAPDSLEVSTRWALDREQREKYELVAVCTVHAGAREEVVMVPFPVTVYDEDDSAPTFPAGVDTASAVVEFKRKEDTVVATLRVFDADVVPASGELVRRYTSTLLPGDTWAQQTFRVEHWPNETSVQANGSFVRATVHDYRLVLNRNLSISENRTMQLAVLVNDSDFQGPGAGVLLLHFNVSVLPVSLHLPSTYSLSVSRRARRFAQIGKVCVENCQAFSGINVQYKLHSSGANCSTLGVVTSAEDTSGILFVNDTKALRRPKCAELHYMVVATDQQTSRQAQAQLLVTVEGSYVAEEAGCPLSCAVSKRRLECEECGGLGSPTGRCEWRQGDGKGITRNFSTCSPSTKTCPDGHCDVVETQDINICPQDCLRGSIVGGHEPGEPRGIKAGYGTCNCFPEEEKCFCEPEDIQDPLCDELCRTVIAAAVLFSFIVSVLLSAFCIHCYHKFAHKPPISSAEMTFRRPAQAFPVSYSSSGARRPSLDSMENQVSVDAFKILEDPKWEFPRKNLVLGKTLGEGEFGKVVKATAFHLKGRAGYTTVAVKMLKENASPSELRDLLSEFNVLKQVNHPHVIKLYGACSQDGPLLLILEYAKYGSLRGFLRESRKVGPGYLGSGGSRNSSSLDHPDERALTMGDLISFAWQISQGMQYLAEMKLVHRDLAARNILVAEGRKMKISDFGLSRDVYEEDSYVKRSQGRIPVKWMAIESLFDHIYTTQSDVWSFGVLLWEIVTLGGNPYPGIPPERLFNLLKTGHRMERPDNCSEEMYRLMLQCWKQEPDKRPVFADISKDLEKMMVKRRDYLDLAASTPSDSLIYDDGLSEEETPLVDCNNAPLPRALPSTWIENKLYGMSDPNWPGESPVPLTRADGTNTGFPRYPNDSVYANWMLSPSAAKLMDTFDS
T7 sequence (Q9H3Y6 whole entry): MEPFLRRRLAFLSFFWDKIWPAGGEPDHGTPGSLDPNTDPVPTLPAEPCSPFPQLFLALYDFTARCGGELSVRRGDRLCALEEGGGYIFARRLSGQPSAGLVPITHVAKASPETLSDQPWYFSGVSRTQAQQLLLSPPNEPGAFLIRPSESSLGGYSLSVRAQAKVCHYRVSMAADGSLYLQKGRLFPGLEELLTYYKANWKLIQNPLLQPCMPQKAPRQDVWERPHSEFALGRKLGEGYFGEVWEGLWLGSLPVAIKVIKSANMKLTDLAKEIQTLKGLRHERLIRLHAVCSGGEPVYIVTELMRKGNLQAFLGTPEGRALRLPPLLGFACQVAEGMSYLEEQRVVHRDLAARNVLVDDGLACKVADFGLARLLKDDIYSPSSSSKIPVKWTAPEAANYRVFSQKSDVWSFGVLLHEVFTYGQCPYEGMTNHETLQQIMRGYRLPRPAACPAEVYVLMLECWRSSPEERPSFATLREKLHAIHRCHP
T9 sequence (P00533 25-1210 G719S): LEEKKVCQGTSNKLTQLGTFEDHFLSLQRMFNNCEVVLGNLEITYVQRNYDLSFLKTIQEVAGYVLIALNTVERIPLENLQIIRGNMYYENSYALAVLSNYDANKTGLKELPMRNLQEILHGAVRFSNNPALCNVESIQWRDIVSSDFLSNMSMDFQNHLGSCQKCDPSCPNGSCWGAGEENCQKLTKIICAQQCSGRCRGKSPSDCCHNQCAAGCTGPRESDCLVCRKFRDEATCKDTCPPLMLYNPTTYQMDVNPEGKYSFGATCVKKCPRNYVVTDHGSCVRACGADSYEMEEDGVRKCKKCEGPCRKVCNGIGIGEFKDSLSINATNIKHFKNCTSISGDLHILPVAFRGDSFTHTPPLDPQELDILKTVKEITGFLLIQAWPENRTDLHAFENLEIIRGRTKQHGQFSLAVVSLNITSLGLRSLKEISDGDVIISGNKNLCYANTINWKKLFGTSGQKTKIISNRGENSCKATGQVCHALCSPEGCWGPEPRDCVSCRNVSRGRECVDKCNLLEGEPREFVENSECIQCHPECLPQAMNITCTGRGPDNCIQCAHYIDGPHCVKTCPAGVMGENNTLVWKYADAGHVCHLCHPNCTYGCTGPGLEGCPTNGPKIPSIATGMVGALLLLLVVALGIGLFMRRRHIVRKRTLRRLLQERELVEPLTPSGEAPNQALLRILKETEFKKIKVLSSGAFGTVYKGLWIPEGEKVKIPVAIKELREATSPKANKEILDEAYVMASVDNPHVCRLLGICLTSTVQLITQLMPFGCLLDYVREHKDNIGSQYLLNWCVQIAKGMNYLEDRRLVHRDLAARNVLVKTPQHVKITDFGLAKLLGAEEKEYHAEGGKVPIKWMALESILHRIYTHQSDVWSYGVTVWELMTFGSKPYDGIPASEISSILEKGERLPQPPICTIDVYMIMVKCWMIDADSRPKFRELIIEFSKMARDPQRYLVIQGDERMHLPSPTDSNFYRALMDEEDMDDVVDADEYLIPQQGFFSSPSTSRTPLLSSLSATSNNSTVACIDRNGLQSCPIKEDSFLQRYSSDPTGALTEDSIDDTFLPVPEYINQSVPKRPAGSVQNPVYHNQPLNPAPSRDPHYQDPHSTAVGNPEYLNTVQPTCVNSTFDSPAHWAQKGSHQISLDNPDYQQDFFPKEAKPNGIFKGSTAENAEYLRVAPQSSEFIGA

Compound | remaining binding at 1 µM (panel of 468 kinases [1]) [%] | remaining binding at 1 µM (panel of 468 kinases [2]; ABL1(T315I)-nonphosphorylated) [%] | remaining binding at 1 µM (panel of 468 kinases [2]; ABL1(T315I)-phosphorylated) [%] | remaining binding at 1 µM (panel of 468 kinases [3]) [%] | remaining binding at 1 µM (panel of 468 kinases [4]) [%] | remaining binding at 1 µM (panel of 468 kinases [5]) [%] | remaining binding at 1 µM (panel of 468 kinases [6]) [%] | remaining binding at 1 µM (panel of 468 kinases [7]) [%] | remaining binding at 1 µM (panel of 468 kinases [8]) [%] | remaining binding at 1 µM (panel of 468 kinases [9]) [%] | remaining binding at 1 µM (panel of 468 kinases [10]) [%] | remaining binding at 1 µM (panel of 468 kinases [11]) [%]
CNc1nc(Nc2ccc(C(=O)N3CCC(N4CCOCC4)CC3)c3c2OCO3)nc2[nH]cc(Cl)c12 [Compound 75, (7-((5-chloro-4-(methylamino)-7H-pyrrolo[2,3-d]pyrimidin-2-yl)amino)benzo[d][1,3]dioxol-4-yl)(4-morpholinopiperidin-1-yl)methanone] | 100 | 100 | 60 | 31 | 96 | 73 | 100 | 70 | 42 | 100 | 100 | 100
CNc1nc(Nc2ccc(S(=O)(=O)N3CCC(N4CCOCC4)CC3)cc2OC)nc2[nH]cc(Cl)c12 [Compound 12, 5-chloro-N2-(2-methoxy-4-((4-morpholinopiperidin-1-yl)sulfonyl)phenyl)-N4-methyl-7H-pyrrolo[2,3-d]pyrimidine-2,4-diamine] | 100 | 94 | 100 | 72 | 94 | 100 | 100 | 66 | 89 | 99 | 100 | 100
CNc1nc(Nc2ccc(P3(=O)CCN(C4CCOCC4)CC3)cc2OC)nc2[nH]cc(Cl)c12 [Compound 77, 4-(4-((5-chloro-4-(methylamino)-7H-pyrrolo[2,3-d]pyrimidin-2-yl)amino)-3-methoxyphenyl)-1-(tetrahydro-2H-pyran-4-yl)-1,4-azaphosphinane 4-oxide] | 98 | 99 | 77 | 100 | 90 | 100 | 100 | 64 | 100 | 100 | 100 | 100
